{"source": "patent US4059693A", "about": "“Analgesic action of substance P” (priority 1976, dated 1977)", "key": {"mice [1]": {"system": "mice", "assay": "Hot plate analgesiometer in mice, intraperitoneal injection", "format": "in vivo", "experimental": "The drug was administered by intraperitoneal injection, employing the solution prepared according to Example 1. Three groups of mice, 5 animals per group, received a single injection ip of Substance P or vehicle alone. Mice weighed 30 grams each. Group 1: Substance P, 5 microgram per mouse ([…])([…]) Group 2: Substance P, 1 microgram per mouse (1 × 10^-6 g)(33.3 microgram/kg) Group 3: Vehicle alone\nOn the day before the animals were to be given the drug, each animal was tested on the hot plate analgesiometer for its reaction time (the time in seconds after placing on the hot plate until the animal jumps). The next day animals were given the injection and then tested on the analgesiometer at times of 30, 60, 90, 120 and 150 minutes after the injection. From the reaction times observed the control reaction time determined the previous day was subtracted. The reaction times given in the table below are the increase in reaction time (over the control value) due to the injection."}, "Male Swiss Webster mice": {"system": "Male Swiss Webster mice", "settings": "mouse, in vivo; for Reaction times with naloxone: ip"}, "mice [2]": {"system": "mice", "assay": "Reaction time in mice after intravenous injection in the tail vein", "format": "in vivo", "settings": "50 ng iv tail vein, 90 minutes", "experimental": "50 ng of Substance P was administered peripherally to mice by intravenous injection in the tail vein. The mean reaction time at 90 minutes was 6.2 seconds."}, "mammals": {"system": "mammals", "assay": "Analgesic potency, addictiveness and side-effects with morphine sulfate as standard of reference", "format": "in vivo"}, "test animals": {"system": "test animals", "assay": "Time course of analgesia in test animals", "format": "in vivo", "from_the_text": "The dosage rate is selected so as to provide analgesia for a useful minimum period of time, while at the same time avoiding any impact of sudden severe lowering of blood pressure."}, "blood pressure": {"system": "blood pressure", "settings": "intravenous administration described in the prior art; cited from earlier work"}, "anaesthetized rats": {"system": "anaesthetized rats", "settings": "injected into anaesthetized rats; cited from earlier work"}, "human blister base": {"system": "human blister base", "settings": "isolated, not pure compound per the patent; cited from earlier work"}, "brain opiate receptor": {"system": "brain opiate receptor", "settings": "in vitro; cited from earlier work"}, "[3]": {"settings": "cited from earlier work"}}}
{"compound": "CSCC[C@H](NC(=O)[C@H](CC(C)C)NC(=O)CNC(=O)[C@H](Cc1ccccc1)NC(=O)[C@H](Cc1ccccc1)NC(=O)[C@H](CCC(N)=O)NC(=O)[C@H](CCC(N)=O)NC(=O)[C@@H]1CCCN1C(=O)[C@H](CCCCN)NC(=O)[C@@H]1CCCN1C(=O)[C@@H](N)CCCNC(=N)N)C(N)=O", "note": "[Substance P, H-Arg-Pro-Lys-Pro-Gln-Gln-Phe-Phe-Gly-Leu-Met-NH2]", "values": [{"measurement": "Reaction Time Over Controls", "setting": "mice [1]; Group 1: (5 × 10^-9 g)(0.167 microgram/kg) ip, 30 min", "result": "7.04 ± 1.91", "unit": "s"}, {"measurement": "Reaction Time Over Controls", "setting": "mice [1]; Group 1: (5 × 10^-9 g)(0.167 microgram/kg) ip, 60 min", "result": "6.56 ± 2.4", "unit": "s"}, {"measurement": "Reaction Time Over Controls", "setting": "mice [1]; Group 1: (5 × 10^-9 g)(0.167 microgram/kg) ip, 90 min", "result": "8.36 ± 3.2", "unit": "s"}, {"measurement": "Reaction Time Over Controls", "setting": "mice [1]; Group 1: (5 × 10^-9 g)(0.167 microgram/kg) ip, 120 min", "result": "6.24 ± 1.4", "unit": "s"}, {"measurement": "Reaction Time Over Controls", "setting": "mice [1]; Group 1: (5 × 10^-9 g)(0.167 microgram/kg) ip, 150 min", "result": "3.84 ± 2.12", "unit": "s"}, {"measurement": "Reaction Time Over Controls", "setting": "mice [1]; Group 2: 1 microgram per mouse (33.3 microgram/kg) ip, 30 min", "result": "7.6 ± 2.68", "unit": "s"}, {"measurement": "Reaction Time Over Controls", "setting": "mice [1]; Group 2: 1 microgram per mouse (33.3 microgram/kg) ip, 60 min", "result": "11.44 ± 3.49", "unit": "s"}, {"measurement": "Reaction Time Over Controls", "setting": "mice [1]; Group 2: 1 microgram per mouse (33.3 microgram/kg) ip, 90 min", "result": "10.96 ± 1.33", "unit": "s"}, {"measurement": "Reaction Time Over Controls", "setting": "mice [1]; Group 2: 1 microgram per mouse (33.3 microgram/kg) ip, 120 min", "result": "8.2 ± 3.18", "unit": "s"}, {"measurement": "Reaction Time Over Controls", "setting": "mice [1]; Group 2: 1 microgram per mouse (33.3 microgram/kg) ip, 150 min", "result": "4.08 ± 1.26", "unit": "s"}, {"measurement": "Increases in reaction times compared to the vehicle controls (Student t test)", "setting": "mice [1]; groups 1 and 2, 150 min", "result": "not statistically significant"}, {"measurement": "Increases in reaction times compared to the vehicle controls (Student t test)", "setting": "mice [1]; groups 1 and 2, all times except 150 min", "result": "significant"}, {"measurement": "Reaction times compared to those of controls", "setting": "Male Swiss Webster mice", "result": "significantly increased"}, {"measurement": "Reaction times with naloxone", "setting": "Male Swiss Webster mice", "result": "not increased during the first measurement, but gradually became longer"}, {"measurement": "Mean reaction time", "setting": "mice [2]", "result": 6.2, "unit": "s"}, {"measurement": "Addictiveness", "setting": "mammals; in vivo", "result": "nonaddictive"}, {"measurement": "Side-effects", "setting": "mammals; in vivo", "result": "relatively free from significant side-effects"}, {"measurement": "Potency as an analgesic relative to morphine sulfate", "setting": "mammals; morphine sulfate as standard of reference", "result": "about 450 times"}, {"measurement": "Commencement of analgesia following administration", "setting": "test animals", "result": "20 to 30", "unit": "min"}, {"measurement": "Time to peak effectiveness of analgesia", "setting": "test animals", "result": "about 1.5 hours"}, {"measurement": "Duration of sharp lowering of blood pressure", "setting": "blood pressure", "result": "≤ 7", "unit": "min"}, {"measurement": "Sialogogic activity", "setting": "anaesthetized rats", "result": "stimulated salivary secretion"}, {"measurement": "Algogen (pain-producing) activity", "setting": "human blister base", "result": "very potent algogen"}]}
{"compound": "Lipotropin C-Fragment: the entire 61-91 LPH fragment, extracted from pig pituitary (YGGFMTSEKSQTPLVTLFKNAIVKNAHKKGQ; Beta-endorphin; UniProt P01192 237-267, looked up)", "values": [{"measurement": "Potency relative to methionine enkephalin in inhibiting binding of naloxone and dihydromorphine", "setting": "brain opiate receptor", "result": "approximately thirty"}]}
{"compound": "Tyr-Gly-Gly-Phe-Met [Met-Enk]", "values": [{"measurement": "Analgesic activity in vivo", "setting": "[3]", "result": "does not exhibit significant analgesic activity in vivo"}]}
{"compound": "CN1CC[C@]23c4c5ccc(O)c4O[C@H]2[C@@H](O)C=C[C@H]3[C@H]1C5.O=S(=O)(O)O", "note": "[MS, morphine sulfate, reference compound]", "values": [{"measurement": "Reaction times with naloxone", "setting": "Male Swiss Webster mice", "result": "not increased during the first measurement, but gradually became longer"}]}
